Earlier results on two compounds are cited in patent US11111208B2, “Process for the preparation of safinamide mesylate intermediate” (RK Pharma Solutions LLC, priority 2019, dated 2021).

Assay in series [1]: not given
The source holds these as a separate data set.

For series [2], the system named is MPTP-treated mice.
Series [3] relates to gerbil ischemia model.
The test system of series [4] is rat kainic acid model.

Where a name gives a salt, the structure may show the parent alone. Read-outs that look alike come from different tables or passages of the source. A value given as a limit tells only on which side of the number the result lay.

In general, solubility refers to the dissolved amount per volume that the medium holds. As to `C[C@H](NCc1ccc(OCc2cccc(F)c2)cc1)C(N)=O` [Safinamide mesylate, (S)-2-[[4-[(3-fluorophenyl)methoxy]phenyl]methyl]aminopropanamide methanesulfonate (1:1)], the solubility entry (in dimethyl sulfoxide) is “freely soluble”; the solubility result (in ethanol) is “sparingly soluble”; the solubility result (in ethyl acetate) is reported as “practically insoluble”; the solubility result (in methanol) is reported as “freely soluble”; the solubility entry (in water) is “freely soluble”; the solubility result in series [1] (aqueous buffer pH 1.2) is given as “highly soluble”. Also, the solubility entry in series [1] (aqueous buffer pH 4.5) was “highly soluble”; in series [1] (aqueous buffer pH 6.8), under 400 µg/mL; in series [1] (aqueous buffer pH 7.5) it was under 400 µg/mL.

Turning to `C[C@H](NCc1ccc(OCc2cccc(F)c2)cc1)C(N)=O` [Safinamide, (S)-2-[4-(3-fluorobenzyloxy)-benzylamino]propanamide], the “neuroprotective and neurorescuing effects” value was “neuroprotective and neurorescuing effects” in series [2]; “neuroprotective and neurorescuing effects” in series [3]; “neuroprotective and neurorescuing effects” in series [4].
